Measurements published in patent publication US11155557B2, “Pyrazolopyrimidine compounds and methods of use thereof” (Genentech, Inc., priority 2016, dated 2021).
Like-named read-outs stand apart in the source and are kept apart here.

Legend:
[1] = system: JAK1-dependent STAT6 phosphorylation in BEAS-2B human bronchial epithelial cells; experiment: JAK1 pathway assay: IL-13 stimulated STAT6 phosphorylation in BEAS-2B cells; assay type: cell-based; details: BEAS-2B cells, IL-13 stimulation, read-out: IL-13 p-STAT6 BEAS-2B IC50
Experimental: JAK1 Pathway Assay in Cell Lines was Carried Out as Follows:
Inhibitor potency (EC50) was determined in cell-based assays designed to measure JAK1 dependent STAT phosphorylation.
In one assay approach, TF-1 human erythroleukemia cells obtained from the American Type Culture Collection (ATCC; Manassas, Va.) were used to measure JAK1-dependent STAT6 phosphorylation downstream of IL-13 stimulation. Prior to use in the assays, TF-1 cells were starved of GM-CSF overnight in OptiMEM medium (Life Technologies, Grand Island, N.Y.) supplemented with 0.5% charcoal/dextran stripped fetal bovine serum (FBS), 0.1 mM non-essential amino acids (NEAA), and 1 mM sodium pyruvate. The assays were run in 384-well plates in serum-free OptiMEM medium using 300,000 cells per well. In a second assay approach, BEAS-2B human bronchial epithelial cells obtained from ATCC were plated at 100,000 cells per well of a 96-well plate one day prior to the experiment. The BEAS-2B assay was run in complete growth medium (bronchial epithelial basal medium plus bulletkit; Lonza; Basel, Switzerland).
Test compounds were serially diluted 1:2 in DMSO and then diluted 1:50 in medium just before use. Diluted compounds were added to the cells, for a final DMSO concentration of 0.2%, and incubated for 30 min (for the TF-1 assay) or 1 hr (for the BEAS-2B assay) at 37° C. Then, cells were stimulated with human recombinant cytokine at their respective EC90 concentrations, as previously determined for each individual lot. Cells were stimulated with IL-13 (R&D Systems, Minneapolis, Minn.) for 15 min at 37° C. […] The resultant samples were frozen in the plates at −80° C. Compound mediated inhibition of STAT6 phosphorylation was measured in the cell lysates using MesoScale Discovery (MSD) technology (Gaithersburg, Md.).

[2] = target: isolated recombinant JAK2 kinase domain (Homo sapiens (Human), UniProt O60674); experiment: JAK2 enzyme assay (Caliper LabChip, Ki); details: read-out: JAK2 Ki
[3] = target: isolated recombinant JAK1 kinase domain (Homo sapiens (Human), UniProt P23458); experiment: JAK1 enzyme assay (Caliper LabChip, Ki); assay type: biochemical
Experimental: The activity of the isolated recombinant JAK1 and JAK2 kinase domain was measured by monitoring phosphorylation of a peptide derived from JAK3 ([…] fluorescently labeled on the N-terminus with 5-carboxyfluorescein) using the Caliper LabChip R technology (Caliper Life Sciences, Hopkinton, Mass.).

isolated recombinant JAK1 kinase domain, sequence (P23458 875-1153): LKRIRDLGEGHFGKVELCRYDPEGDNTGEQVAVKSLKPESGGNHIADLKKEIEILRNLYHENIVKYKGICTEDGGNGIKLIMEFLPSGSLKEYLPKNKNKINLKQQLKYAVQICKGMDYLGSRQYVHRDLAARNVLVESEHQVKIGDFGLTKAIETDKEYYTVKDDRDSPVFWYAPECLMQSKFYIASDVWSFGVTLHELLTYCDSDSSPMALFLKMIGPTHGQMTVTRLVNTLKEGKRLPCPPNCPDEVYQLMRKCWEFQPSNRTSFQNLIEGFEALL
isolated recombinant JAK2 kinase domain, sequence (O60674 849-1124): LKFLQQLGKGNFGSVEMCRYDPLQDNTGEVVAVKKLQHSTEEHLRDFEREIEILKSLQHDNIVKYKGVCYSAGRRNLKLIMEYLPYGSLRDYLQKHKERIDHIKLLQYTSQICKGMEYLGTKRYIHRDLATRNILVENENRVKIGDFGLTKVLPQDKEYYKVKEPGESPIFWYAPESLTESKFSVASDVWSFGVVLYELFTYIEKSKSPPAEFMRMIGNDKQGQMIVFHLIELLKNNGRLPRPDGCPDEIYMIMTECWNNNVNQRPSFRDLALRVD

Ki [2] [pM]	Ki [3] [pM]	SMILES	IC50 [1] [pM]	IC50 ([1]; Homo sapiens, BEAS-2B) [pM]
70	110	CC1Sc2cc(-c3nn(C)cc3NC(=O)c3cnn4cccnc34)c(OC(F)F)cc2NC1=O (single isomer, unassigned) [Example 98, N-[3-[6-(difluoromethoxy)-2-methyl-3-oxo-4H-1,4-benzothiazin-7-yl]-1-methyl-pyrazol-4-yl]pyrazolo[1,5-a]pyrimidine-3-carboxamide]	6000	–
430	280	CN1CCC[C@@H]1Cn1cc(NC(=O)c2cnn3cccnc23)c(-c2cc3cn[nH]c3cc2OC(F)F)n1 [Example 77, N-[3-[6-(difluoromethoxy)-1H-indazol-5-yl]-1-[[(2R)-1-methylpyrrolidin-2-yl]methyl]pyrazol-4-yl]pyrazolo[1,5-a]pyrimidine-3-carboxamide]	–	9000
160	230	CN(C)CCn1cc(NC(=O)c2cnn3cccnc23)c(-c2cc3c(cc2OC(F)F)NCCS3)n1 [Example 82, N-[3-[6-(difluoromethoxy)-3,4-dihydro-2H-1,4-benzothiazin-7-yl]-1-[2-(dimethylamino)ethyl]pyrazol-4-yl]pyrazolo[1,5-a]pyrimidine-3-carboxamide]	–	7000
420	220	CN(C)C(=O)Cn1cc(NC(=O)c2cnn3cccnc23)c(-c2cc3c(cc2OC(F)F)CCO3)n1 [Example 109, N-[3-[5-(difluoromethoxy)-2,3-dihydrobenzofuran-6-yl]-1-[2-(dimethylamino)-2-oxo-ethyl]pyrazol-4-yl]pyrazolo[1,5-a]pyrimidine-3-carboxamide]	–	22000
400	250	CNC(=O)Cn1cc(NC(=O)c2cnn3cccnc23)c(-c2cc3c(cc2OC(F)F)NCCO3)n1 [Example 116, N-[3-[6-(difluoromethoxy)-3,4-dihydro-2H-1,4-benzoxazin-7-yl]-1-[2-(methylamino)-2-oxo-ethyl]pyrazol-4-yl]pyrazolo[1,5-a]pyrimidine-3-carboxamide]	–	42000
110	150	CN1CCC(n2cc(NC(=O)c3cnn4cccnc34)c(-c3cc4c(cc3OC(F)F)NCCS4)n2)C1=O (single isomer, unassigned) [Example 125, N-[3-[6-(difluoromethoxy)-3,4-dihydro-2H-1,4-benzothiazin-7-yl]-1-(1-methyl-2-oxo-pyrrolidin-3-yl)pyrazol-4-yl]pyrazolo[1,5-a]pyrimidine-3-carboxamide]	81000	–
1850	4030	Cn1cc(NC(=O)c2cnn3cccnc23)c(-c2cc3sc(C(=O)N4CCNCC4)cc3cc2OC(F)F)n1 [Example 91, N-[3-[5-(difluoromethoxy)-2-(piperazine-1-carbonyl)benzothiophen-6-yl]-1-methyl-pyrazol-4-yl]pyrazolo[1,5-a]pyrimidine-3-carboxamide]	–	308000
100	120	Cn1cc(NC(=O)c2cnn3cccnc23)c(-c2cc3c(cc2OC(F)F)NCCO3)n1 [Example 89, N-[3-[6-(difluoromethoxy)-3,4-dihydro-2H-1,4-benzoxazin-7-yl]-1-methyl-pyrazol-4-yl]pyrazolo[1,5-a]pyrimidine-3-carboxamide]	–	7000
100	190	O=C(Nc1cn(CCN[C@@H]2CCOC2)nc1-c1cc2c(cc1OC(F)F)NCCS2)c1cnn2cccnc12 [Example 78, N-[3-[6-(difluoromethoxy)-3,4-dihydro-2H-1,4-benzothiazin-7-yl]-1-[2-[[(3R)-tetrahydrofuran-3-yl]amino]ethyl]pyrazol-4-yl]pyrazolo[1,5-a]pyrimidine-3-carboxamide]	–	13000
60	90	O=C(Nc1cn(C2CCOC2=O)nc1-c1cc2c(cc1OC(F)F)NCCS2)c1cnn2cccnc12 (single isomer, unassigned) [Example 142, N-[3-[6-(difluoromethoxy)-3,4-dihydro-2H-1,4-benzothiazin-7-yl]-1-(2-oxotetrahydrofuran-3-yl)pyrazol-4-yl]pyrazolo[1,5-a]pyrimidine-3-carboxamide]	15000	–
420	620	CCn1cc(NC(=O)c2cnn3cccnc23)c(-c2cc3ccccc3cc2OC(F)F)n1 [Example 87, N-[3-[3-(difluoromethoxy)-2-naphthyl]-1-ethyl-pyrazol-4-yl]pyrazolo[1,5-a]pyrimidine-3-carboxamide]	–	15000
530	480	CN1CCC[C@H]1Cn1cc(NC(=O)c2cnn3cccnc23)c(-c2cc3cn[nH]c3cc2OC(F)F)n1 [Example 76, N-[3-[6-(difluoromethoxy)-1H-indazol-5-yl]-1-[[(2S)-1-methylpyrrolidin-2-yl]methyl]pyrazol-4-yl]pyrazolo[1,5-a]pyrimidine-3-carboxamide]	–	17000

Second part, the molecule before the results:

SMILES	Ki [2] [pM]	Ki [3] [pM]	IC50 [1] [pM]	IC50 ([1]; Homo sapiens, BEAS-2B) [pM]
C[C@H]1CNc2cc(OC(F)F)c(-c3nn(CC(=O)N4CCC(CN5CCOCC5)CC4)cc3NC(=O)c3cnn4cccnc34)cc2S1 [Example 45, N-[1-[2-[4-(morpholinomethyl)-1-piperidyl]-2-oxo-ethyl]-3-[(2S)-6-(difluoromethoxy)-2-methyl-3,4-dihydro-2H-1,4-benzothiazin-7-yl]pyrazol-4-yl]pyrazolo[1,5-a]pyrimidine-3-carboxamide]	240	220	–	29000
O=C(Nc1cn(CC(=O)N2CCC(O)CC2)nc1-c1cc2c(cc1OC(F)F)NCCS2)c1cnn2cccnc12 [Example 52, N-[3-[6-(difluoromethoxy)-3,4-dihydro-2H-1,4-benzothiazin-7-yl]-1-[2-(4-hydroxy-1-piperidyl)-2-oxo-ethyl]pyrazol-4-yl]pyrazolo[1,5-a]pyrimidine-3-carboxamide]	140	160	–	285000
NCCn1cc(NC(=O)c2cnn3cccnc23)c(-c2cc3c(cc2OC(F)F)NCCS3)n1 [Example 13, N-(1-(2-aminoethyl)-3-(6-(difluoromethoxy)-3,4-dihydro-2H-benzo[b][1,4]thiazin-7-yl)-1H-pyrazol-4-yl)pyrazolo[1,5-a]pyrimidine-3-carboxamide]	130	180	–	20000
C[C@@H]1COc2cc(-c3n[nH]cc3NC(=O)c3cnn4cccnc34)c(OC(F)F)cc2N1 [Example 43, N-[3-[(3R)-6-(difluoromethoxy)-3-methyl-3,4-dihydro-2H-1,4-benzoxazin-7-yl]-1H-pyrazol-4-yl]pyrazolo[1,5-a]pyrimidine-3-carboxamide]	170	250	–	12000
NC(=O)c1cc2cc(OC(F)F)c(-c3nn(CC(=O)N4CCC(N5CCOCC5)CC4)cc3NC(=O)c3cnn4cccnc34)cc2s1 [Example 56, N-[3-[2-carbamoyl-5-(difluoromethoxy)benzothiophen-6-yl]-1-[2-(4-morpholino-1-piperidyl)-2-oxo-ethyl]pyrazol-4-yl]pyrazolo[1,5-a]pyrimidine-3-carboxamide]	370	390	–	> 333000
COC(=O)Cn1cc(NC(=O)c2cnn3cccnc23)c(-c2cc3sccc3cc2OC(F)F)n1 [Example 8, Methyl 2-(3-(5-(difluoromethoxy)benzo[b]thiophen-6-yl)-4-(pyrazolo[1,5-a]pyrimidine-3-carboxamido)-1H-pyrazol-1-yl)acetate]	290	320	–	10000
COC(=O)c1cc2cc(OC(F)F)c(-c3n[nH]cc3NC(=O)c3cnn4cccnc34)cc2s1 [Example 7, Methyl 5-(difluoromethoxy)-6-(4-(pyrazolo[1,5-a]pyrimidine-3-carboxamido)-1H-pyrazol-3-yl)benzo[b]thiophene-2-carboxylate]	110	170	–	6000
O=C(Nc1c[nH]nc1-c1cc2c(cc1OC(F)F)CCC2)c1cnn2cccnc12 [Example 26, N-[3-[6-(difluoromethoxy)indan-5-yl]-1H-pyrazol-4-yl]pyrazolo[1,5-a]pyrimidine-3-carboxamide]	80	190	–	8000
CN1CCC[C@@H]1Cn1cc(NC(=O)c2cnn3cccnc23)c(-c2cc3c(cc2OC(F)F)NCCS3)n1 [Example 72, N-[3-[6-(difluoromethoxy)-3,4-dihydro-2H-1,4-benzothiazin-7-yl]-1-[[(2R)-1-methylpyrrolidin-2-yl]methyl]pyrazol-4-yl]pyrazolo[1,5-a]pyrimidine-3-carboxamide]	220	220	–	10000
